Patent US20250250257A1, “NOVEL CRYSTALLINE FORMS” (Assembly Biosciences, Inc., priority 2021, published 2025)
Values after ≈ are worked out from the molar mass of the structure shown. “Also recorded” adds a separate entry of the source.

Assays:
Type in all cases: physicochemical
[1] = Approximate solubility test of Compound I at room temperature / 50° C. in different solvents; details: thermodynamic from solid
Experimental: The specific steps are as follows: Charge about 5 mg of Compound I into a clean glass vial, […] visible particles (add up to 1.5 mL of solvent), record the amount of solvent at last for the calculation of solubility.

[2] = Approximate solubility of Compound I, Type 1 at RT in twenty solvents (stepwise solvent addition); details: for solubility: thermodynamic from solid, read-out: Approximate Solubility (mg/mL) at RT
Experimental: The solubility of Compound I, Type 1 (6036531-01-A) was estimated at RT in twenty different solvents. Approximately 2 mg solids were added into a 3-mL glass vial. Solvents in Table 39 were then added stepwise (50 μL per step) into the vials until the solids were dissolved or a total volume of 2 mL was reached.

[3] = DVS (water sorption, hygroscopicity, form change post-DVS); details: for form change post-DVS (XRPD): after DVS (desorption and resorption)

## Cn1cnc(C2CC3CC(O)(c4cc(OCC(C)(C)O)nn4C)CC3C2)c1C(=O)Nc1ccc(F)c(Cl)c1 (centres unmarked) [Compound I, N-(3-Chloro-4-fluorophenyl)-4-(5-hydroxy-5-(3-(2-hydroxy-2-methylpropoxy)-1-methyl-1H-pyrazol-5-yl)octahydropentalen-2-yl)-1-methyl-1H-imidazole-5-carboxamide]
[1]; organic solvent or mixture, ACN, 20-25° C., read-out: Solubility (mg/mL) 20-25° C.
  solubility: < 3.3 mg/mL
[1]; organic solvent or mixture, ACN, 50° C., read-out: Solubility (mg/mL) 50° C.
  solubility: < 3.3 mg/mL
[1]; organic solvent or mixture, Acetone, 20-25° C., read-out: Solubility (mg/mL) 20-25° C.
  solubility: < 3.3 mg/mL
[1]; organic solvent or mixture, Acetone, 50° C., read-out: Solubility (mg/mL) 50° C.
  solubility: 3.8 to 4 mg/mL (≈ 6.96 to 7.33 mM)
[1]; organic solvent or mixture, Acetone/H2O = 95/5(V/V), 20-25° C., read-out: Solubility (mg/mL) 20-25° C.
  solubility: 5 to 5.1 mg/mL (≈ 9.16 to 9.34 mM)
[1]; organic solvent or mixture, Acetone/H2O = 95/5(V/V), 50° C., read-out: Solubility (mg/mL) 50° C.
  solubility: 6.5 to 6.7 mg/mL (≈ 11.9 to 12.3 mM)
[1]; organic solvent or mixture, DCM, 20-25° C., read-out: Solubility (mg/mL) 20-25° C.
  solubility: < 3.3 mg/mL
[1]; organic solvent or mixture, DCM, 50° C., read-out: Solubility (mg/mL) 50° C.
  solubility: < 3.3 mg/mL
[1]; organic solvent or mixture, DMSO, 20-25° C., read-out: Solubility (mg/mL) 20-25° C.
  solubility: 167 to 200 mg/mL (≈ 306 to 366 mM)
[1]; organic solvent or mixture, DMSO, 50° C., read-out: Solubility (mg/mL) 50° C.
  solubility: 250 to 333 mg/mL (≈ 458 to 610 mM)
[1]; organic solvent or mixture, EA, 20-25° C., read-out: Solubility (mg/mL) 20-25° C.
  solubility: < 3.3 mg/mL
[1]; organic solvent or mixture, EA, 50° C., read-out: Solubility (mg/mL) 50° C.
  solubility: < 3.3 mg/mL
[1]; organic solvent or mixture, EtOH, 20-25° C., read-out: Solubility (mg/mL) 20-25° C.
  solubility: 8 to 8.3 mg/mL (≈ 14.7 to 15.2 mM)
[1]; organic solvent or mixture, EtOH, 50° C., read-out: Solubility (mg/mL) 50° C.
  solubility: 20 to 20.4 mg/mL (≈ 36.6 to 37.4 mM)
[1]; organic solvent or mixture, EtOH/H2O = 95/5(V/V), 20-25° C., read-out: Solubility (mg/mL) 20-25° C.
  solubility: 22.2 to 23.2 mg/mL (≈ 40.7 to 42.5 mM)
[1]; organic solvent or mixture, EtOH/H2O = 95/5(V/V), 50° C., read-out: Solubility (mg/mL) 50° C.
  solubility: 45.4 to 47.6 mg/mL (≈ 83.1 to 87.2 mM)
[1]; organic solvent or mixture, Heptane, 20-25° C., read-out: Solubility (mg/mL) 20-25° C.
  solubility: < 3.3 mg/mL
[1]; organic solvent or mixture, Heptane, 50° C., read-out: Solubility (mg/mL) 50° C.
  solubility: < 3.3 mg/mL
[1]; organic solvent or mixture, IPA, 20-25° C., read-out: Solubility (mg/mL) 20-25° C.
  solubility: < 3.3 mg/mL
[1]; organic solvent or mixture, IPA, 50° C., read-out: Solubility (mg/mL) 50° C.
  solubility: 5 to 5.1 mg/mL (≈ 9.16 to 9.34 mM)
[1]; organic solvent or mixture, IPA/H2O = 95/5(V/V), 20-25° C., read-out: Solubility (mg/mL) 20-25° C.
  solubility: < 3.3 mg/mL
[1]; organic solvent or mixture, IPA/H2O = 95/5(V/V), 50° C., read-out: Solubility (mg/mL) 50° C.
  solubility: 8 to 8.1 mg/mL (≈ 14.7 to 14.8 mM)
[1]; organic solvent or mixture, IPAc, 20-25° C., read-out: Solubility (mg/mL) 20-25° C.
  solubility: < 3.3 mg/mL
[1]; organic solvent or mixture, IPAc, 50° C., read-out: Solubility (mg/mL) 50° C.
  solubility: < 3.3 mg/mL
[1]; organic solvent or mixture, MTBE, 20-25° C., read-out: Solubility (mg/mL) 20-25° C.
  solubility: < 3.3 mg/mL
[1]; organic solvent or mixture, MTBE, 50° C., read-out: Solubility (mg/mL) 50° C.
  solubility: < 3.3 mg/mL
[1]; organic solvent or mixture, MeOH, 20-25° C., read-out: Solubility (mg/mL) 20-25° C.
  solubility: 32.2 to 33.3 mg/mL (≈ 59 to 61 mM)
[1]; organic solvent or mixture, MeOH, 50° C., read-out: Solubility (mg/mL) 50° C.
  solubility: 74.1 to 76.9 mg/mL (≈ 136 to 141 mM)
[1]; organic solvent or mixture, THF, 20-25° C., read-out: Solubility (mg/mL) 20-25° C.
  solubility: 12.5 to 12.6 mg/mL (≈ 22.9 to 23.1 mM)
[1]; organic solvent or mixture, THF, 50° C., read-out: Solubility (mg/mL) 50° C.
  solubility: 18.1 to 18.5 mg/mL (≈ 33.1 to 33.9 mM)
[1]; organic solvent or mixture, Toluene, 20-25° C., read-out: Solubility (mg/mL) 20-25° C.
  solubility: < 3.3 mg/mL
[1]; organic solvent or mixture, Toluene, 50° C., read-out: Solubility (mg/mL) 50° C.
  solubility: < 3.3 mg/mL
[1]; water, H2O, 20-25° C., read-out: Solubility (mg/mL) 20-25° C.
  solubility: < 3.3 mg/mL
[1]; water, H2O, 50° C., read-out: Solubility (mg/mL) 50° C.
  solubility: < 3.3 mg/mL

## Cn1cnc([C@@H]2C[C@@H]3C[C@@](O)(c4cc(OCC(C)(C)O)nn4C)C[C@@H]3C2)c1C(=O)Nc1ccc(F)c(Cl)c1 [Type 1, N-(3-chloro-4-fluorophenyl)-4-((2s,3aR,5r,6aS)-5-hydroxy-5-(3-(2-hydroxy-2-methylpropoxy)-1-methyl-1H-pyrazol-5-yl)octahydropentalen-2-yl)-1-methyl-1H-imidazole-5-carboxamide]
[2]; 1-Butanol
  Characterization (of approximate solubility): Moderate
[2]; 2-MeTHF
  Characterization (of approximate solubility): Moderate
[2]; Acetone
  Characterization (of approximate solubility): Moderate
[2]; Acetonitrile
  Characterization (of approximate solubility): Poor
[2]; CPME
  Characterization (of approximate solubility): Poor
[2]; DCM
  Characterization (of approximate solubility): Poor
[2]; DMF
  Characterization (of approximate solubility): High
[2]; DMSO
  Characterization (of approximate solubility): High
[2]; EtOH
  Characterization (of approximate solubility): High
[2]; H2O
  Characterization (of approximate solubility): Poor
[2]; IPA
  Characterization (of approximate solubility): Moderate
[2]; IPAc
  Characterization (of approximate solubility): Poor
[2]; MEK
  Characterization (of approximate solubility): Moderate
[2]; MIBK
  Characterization (of approximate solubility): Poor
[2]; MTBE
  Characterization (of approximate solubility): Poor
[2]; MeOH
  Characterization (of approximate solubility): High
[2]; THF
  Characterization (of approximate solubility): High
[2]; Toluene
  Characterization (of approximate solubility): Poor
[2]; n-Heptane
  Characterization (of approximate solubility): Poor
[2]; n-Propanol
  Characterization (of approximate solubility): Moderate
[2]; organic solvent or mixture, 1-Butanol
  solubility: 2.4 to 8 mg/mL (≈ 4.4 to 14.7 mM)
[2]; organic solvent or mixture, 2-MeTHF
  solubility: 2.2 to 7.3 mg/mL (≈ 4.03 to 13.4 mM)
[2]; organic solvent or mixture, Acetone
  solubility: 2.3 to 7.7 mg/mL (≈ 4.21 to 14.1 mM)
[2]; organic solvent or mixture, Acetonitrile
  solubility: < 2 mg/mL
[2]; organic solvent or mixture, CPME
  solubility: < 2.2 mg/mL
[2]; organic solvent or mixture, DCM
  solubility: < 2.4 mg/mL
[2]; organic solvent or mixture, DMF
  solubility: > 48 mg/mL
[2]; organic solvent or mixture, DMSO
  solubility: > 48 mg/mL
[2]; organic solvent or mixture, EtOH
  solubility: 20 to 40 mg/mL (≈ 36.6 to 73.3 mM)
[2]; organic solvent or mixture, IPA
  solubility: 2.2 to 7.3 mg/mL (≈ 4.03 to 13.4 mM)
[2]; organic solvent or mixture, IPAc
  solubility: < 2.1 mg/mL
[2]; organic solvent or mixture, MEK
  solubility: 2.2 to 7.3 mg/mL (≈ 4.03 to 13.4 mM)
[2]; organic solvent or mixture, MIBK
  solubility: < 2.2 mg/mL
[2]; organic solvent or mixture, MTBE
  solubility: < 2 mg/mL
[2]; organic solvent or mixture, MeOH
  solubility: > 42 mg/mL
[2]; organic solvent or mixture, THF
  solubility: 21 to 42 mg/mL (≈ 38.5 to 76.9 mM)
[2]; organic solvent or mixture, Toluene
  solubility: < 2.5 mg/mL
[2]; organic solvent or mixture, n-Heptane
  solubility: < 2.3 mg/mL
[2]; organic solvent or mixture, n-Propanol
  solubility: 2.2 to 7.3 mg/mL (≈ 4.03 to 13.4 mM)
[2]; water, H2O
  solubility: < 2.5 mg/mL
[3]
  water content at 80% RH by DVS: 0.67%
  form change post-DVS (XRPD): no form change
[3]; based on water sorption at 80% RH
  hygroscopicity (from DVS): slightly hygroscopic

## Cn1cnc([C@@H]2C[C@@H]3C[C@@](O)(c4cc(OCC(C)(C)O)nn4C)C[C@@H]3C2)c1C(=O)Nc1ccc(F)c(Cl)c1 [Type 2, N-(3-chloro-4-fluorophenyl)-4-((2s,3aR,5r,6aS)-5-hydroxy-5-(3-(2-hydroxy-2-methylpropoxy)-1-methyl-1H-pyrazol-5-yl)octahydropentalen-2-yl)-1-methyl-1H-imidazole-5-carboxamide]
[3]
  RH range in which the form is stable (DVS): 30-95 % RH
  water content at 80% RH by DVS: 9.2%
  form change post-DVS (XRPD): Form change was observed post-DVS to a lower order hydrate; also recorded: converted to Type 3
